Assay results reported in ChEMBL document CHEMBL6109114, “Design, synthesis, and biological evaluation of 4-(2-fluorophenoxy)pyridine derivatives as novel FLT3-ITD inhibitors” (Eur J Med Chem, 2025).
Active and inactive are the calls of the source. The calls are words filed in the database; no cut-off is given here.

Tests used:
BaF3 [1] = assay: Antiproliferative activity against wild type mouse BaF3 cells assessed as inhibition of cell growth measured after 3 days by celltiter-glo luminescent cell viability assay; assay type: functional, cell-based; conditions: BaF3, 72 h
Jurkat = assay: Antiproliferative activity against non-FLT3 expressing human Jurkat cells assessed as inhibition of cell growth measured after 3 days by celltiter-glo luminescent cell viability assay; assay type: functional, cell-based; conditions: 72 h
NCI-H441 = assay: Antiproliferative activity against non-FLT3 expressing human NCI-H441 cells assessed as inhibition of cell growth measured after 3 days by celltiter-glo luminescent cell viability assay; assay type: functional, cell-based; conditions: NCI-H441, 72 h
[2] = biological target: Mast/stem cell growth factor receptor Kit (Homo sapiens) (UniProt P10721); assay: Inhibition of human c-Kit at 1 uM by Eurofins-DiscoverX assay
Chain of Mast/stem cell growth factor receptor Kit (Homo sapiens) (P10721 whole entry): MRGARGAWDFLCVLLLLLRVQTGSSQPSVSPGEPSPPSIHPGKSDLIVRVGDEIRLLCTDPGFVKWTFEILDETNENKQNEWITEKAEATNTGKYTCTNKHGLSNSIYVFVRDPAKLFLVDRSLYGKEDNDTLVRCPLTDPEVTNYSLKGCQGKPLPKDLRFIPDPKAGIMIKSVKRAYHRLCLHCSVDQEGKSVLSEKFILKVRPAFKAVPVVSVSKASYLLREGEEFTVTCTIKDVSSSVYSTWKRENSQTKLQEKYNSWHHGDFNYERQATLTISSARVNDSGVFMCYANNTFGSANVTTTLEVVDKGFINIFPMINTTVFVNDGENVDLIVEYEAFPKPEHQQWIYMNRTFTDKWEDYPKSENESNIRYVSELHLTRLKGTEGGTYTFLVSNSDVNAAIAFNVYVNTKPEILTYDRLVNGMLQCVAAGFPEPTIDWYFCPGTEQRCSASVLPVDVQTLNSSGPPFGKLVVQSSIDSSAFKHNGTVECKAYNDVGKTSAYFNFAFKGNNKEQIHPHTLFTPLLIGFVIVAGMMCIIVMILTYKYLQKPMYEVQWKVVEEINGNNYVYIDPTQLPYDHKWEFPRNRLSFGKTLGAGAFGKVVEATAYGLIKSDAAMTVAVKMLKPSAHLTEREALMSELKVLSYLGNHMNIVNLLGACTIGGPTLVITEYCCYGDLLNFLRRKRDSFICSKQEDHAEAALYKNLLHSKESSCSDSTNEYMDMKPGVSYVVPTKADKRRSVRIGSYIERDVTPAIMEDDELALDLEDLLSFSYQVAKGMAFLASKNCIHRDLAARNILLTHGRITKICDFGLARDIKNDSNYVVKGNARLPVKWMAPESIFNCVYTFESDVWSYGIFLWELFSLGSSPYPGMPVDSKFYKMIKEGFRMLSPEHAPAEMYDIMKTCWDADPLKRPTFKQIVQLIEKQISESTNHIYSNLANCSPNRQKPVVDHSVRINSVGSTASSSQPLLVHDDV

[3] = biological target: CDK4/Cyclin D3 (Homo sapiens) (UniProt P11802+P30281); assay: Inhibition of human CDK4/cyclinD3 at 1 uM by Eurofins-DiscoverX assay; assay type: protein-complex assay
[4] = biological target: CDK6/cyclin D3 (Homo sapiens) (UniProt P30281+Q00534); assay: Inhibition of human CDK6/cyclinD3 assessed as remaining activity at 1 uM by Eurofins-DiscoverX assay relative to control; assay type: protein-complex assay
[5] = biological target: Receptor-type tyrosine-protein kinase FLT3 (Homo sapiens, UniProt P36888); assay: Inhibition of FLT3 (unknown origin) using Fluorescein-Poly GT as substrate preincubated for 10 mins followed by substrate addition and measured after 30 mins in presence of ATP by mobility shift assay
Chain of Receptor-type tyrosine-protein kinase FLT3 (P36888 whole entry): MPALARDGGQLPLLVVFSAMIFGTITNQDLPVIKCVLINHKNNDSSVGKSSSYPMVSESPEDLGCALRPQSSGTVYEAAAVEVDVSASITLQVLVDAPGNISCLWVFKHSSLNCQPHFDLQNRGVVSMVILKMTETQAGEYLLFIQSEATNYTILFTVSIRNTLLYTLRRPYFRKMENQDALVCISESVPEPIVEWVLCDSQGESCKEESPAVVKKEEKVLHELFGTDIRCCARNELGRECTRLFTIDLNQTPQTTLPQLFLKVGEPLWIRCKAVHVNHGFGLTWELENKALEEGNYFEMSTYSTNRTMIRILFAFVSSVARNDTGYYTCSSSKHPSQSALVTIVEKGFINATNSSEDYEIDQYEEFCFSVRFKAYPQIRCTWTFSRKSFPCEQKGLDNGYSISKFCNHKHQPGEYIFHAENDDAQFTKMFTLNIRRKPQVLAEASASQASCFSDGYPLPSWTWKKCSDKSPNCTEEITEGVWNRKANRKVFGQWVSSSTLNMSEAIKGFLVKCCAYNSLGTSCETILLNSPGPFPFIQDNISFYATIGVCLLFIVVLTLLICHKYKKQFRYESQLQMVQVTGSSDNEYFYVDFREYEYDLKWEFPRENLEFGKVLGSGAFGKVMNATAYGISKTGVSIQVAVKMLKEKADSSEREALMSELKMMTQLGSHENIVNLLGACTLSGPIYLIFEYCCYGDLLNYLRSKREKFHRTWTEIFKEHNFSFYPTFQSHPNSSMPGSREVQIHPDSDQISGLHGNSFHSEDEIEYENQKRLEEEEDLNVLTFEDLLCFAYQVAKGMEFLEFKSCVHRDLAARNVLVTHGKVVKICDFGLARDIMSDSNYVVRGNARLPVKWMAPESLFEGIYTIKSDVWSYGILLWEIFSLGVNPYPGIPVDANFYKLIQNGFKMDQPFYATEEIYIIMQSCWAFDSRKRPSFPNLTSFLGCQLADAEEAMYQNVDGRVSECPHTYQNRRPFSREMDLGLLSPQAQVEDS

BaF3 [6] = assay: Antiproliferative activity against mouse BaF3 cells harbouring TEL-FLT3 assessed as inhibition of cell growth measured after 3 days by celltiter-glo luminescent cell viability assay; assay type: functional, cell-based; conditions: BaF3, 72 h
[7] = biological target: Receptor-type tyrosine-protein kinase FLT3 (Homo sapiens) (UniProt P36888); assay: Inhibition of FLT3 phosphorylation in human MOLM-13 cells measured after 2 hrs by Western blot analysis; assay type: cell-based; conditions: dose 0.01-1 µM
Chain of Receptor-type tyrosine-protein kinase FLT3 (Homo sapiens) (P36888 whole entry): as above

MOLM-13 [8] = assay: Inhibition of STAT5 phosphorylation in human MOLM-13 cells measured after 2 hrs by Western blot analysis; assay type: cell-based; conditions: dose 0.01-1 µM
[9] = biological target: Receptor-type tyrosine-protein kinase FLT3 (Homo sapiens) (UniProt P36888); assay: Inhibition of FLT3 phosphorylation in human MOLM-13 cells at 0.2 uM measured after 2 hrs by Western blot analysis relative to control; assay type: cell-based
MOLM-13 [10] = assay: Induction of apoptosis in human MOLM-13 cells assessed as viable cells at 1 uM incubated for 48 hrs by Annexin V-FITC/PI staining based flow cytometry analysis (reference value: 91.9%); assay type: functional; conditions: read-out: Activity
MOLM-13 [11] = assay: Induction of apoptosis in human MOLM-13 cells assessed as late apoptotic cells at 0.1 uM incubated for 48 hrs by Annexin V-FITC/PI staining based flow cytometry analysis (reference value: 3.10%); assay type: functional
MOLM-13 [12] = assay: Induction of apoptosis in human MOLM-13 cells assessed as necrotic cells at 0.3 uM incubated for 48 hrs by Annexin V-FITC/PI staining based flow cytometry analysis (reference value: 0.077%); assay type: functional
MOLM-13 [13] = assay: Induction of apoptosis in human MOLM-13 cells incubated for 48 hrs by Annexin V-FITC/PI staining based flow cytometry analysis; assay type: functional, cell-based; conditions: dose 0.1-1 µM
[14] = Metabolic stability in human liver microsomes assessed as parent compound remaining at 1 uM measured after 60 mins by LC-MS/MS analysis; assay type: ADME, Microsome; conditions: read-out: Stability
[15] = Metabolic stability in Beagle dog liver microsomes assessed as half life at 1 uM measured up to 60 mins in presence of NADPH regenerating system by LC-MS/MS analysis; assay type: ADME, Canis lupus familiaris, Microsome
[16] = Permeability of the compound incubated for 4 hrs by PAMPA method; assay type: ADME; conditions: read-out: permeability
CYP1A2 = CYP1A2 (Homo sapiens, UniProt P05177); assay: Inhibition of CYP1A2 in human liver microsomes using phenacetin as substrate at 10 uM incubated for 10 mins in presence of NADPH by LC-MS/MS analysis relative to control; assay type: ADME, Microsome; conditions: probe phenacetin
Chain of CYP1A2 (P05177 whole entry): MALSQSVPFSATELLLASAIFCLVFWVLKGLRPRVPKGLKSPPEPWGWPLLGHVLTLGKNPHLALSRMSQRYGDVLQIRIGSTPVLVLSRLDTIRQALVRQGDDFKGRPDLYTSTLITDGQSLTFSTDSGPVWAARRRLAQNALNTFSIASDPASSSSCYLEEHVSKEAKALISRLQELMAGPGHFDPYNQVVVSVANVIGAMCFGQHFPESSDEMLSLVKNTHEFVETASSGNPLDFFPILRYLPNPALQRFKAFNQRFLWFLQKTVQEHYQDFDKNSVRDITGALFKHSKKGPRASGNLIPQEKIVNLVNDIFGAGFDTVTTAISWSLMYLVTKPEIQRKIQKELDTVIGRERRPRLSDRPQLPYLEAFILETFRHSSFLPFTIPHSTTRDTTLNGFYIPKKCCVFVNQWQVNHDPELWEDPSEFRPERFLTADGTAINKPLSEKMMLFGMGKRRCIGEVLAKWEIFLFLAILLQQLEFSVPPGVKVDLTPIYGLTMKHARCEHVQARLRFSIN

CYP2D6 = CYP2D6 (Homo sapiens, UniProt P10635); assay: Inhibition of CYP2D6 in human liver microsomes using dextromethorphan as substrate at 10 uM incubated for 10 mins in presence of NADPH by LC-MS/MS analysis relative to control; assay type: ADME, Microsome; conditions: probe dextromethorphan
Chain of CYP2D6 (P10635 whole entry): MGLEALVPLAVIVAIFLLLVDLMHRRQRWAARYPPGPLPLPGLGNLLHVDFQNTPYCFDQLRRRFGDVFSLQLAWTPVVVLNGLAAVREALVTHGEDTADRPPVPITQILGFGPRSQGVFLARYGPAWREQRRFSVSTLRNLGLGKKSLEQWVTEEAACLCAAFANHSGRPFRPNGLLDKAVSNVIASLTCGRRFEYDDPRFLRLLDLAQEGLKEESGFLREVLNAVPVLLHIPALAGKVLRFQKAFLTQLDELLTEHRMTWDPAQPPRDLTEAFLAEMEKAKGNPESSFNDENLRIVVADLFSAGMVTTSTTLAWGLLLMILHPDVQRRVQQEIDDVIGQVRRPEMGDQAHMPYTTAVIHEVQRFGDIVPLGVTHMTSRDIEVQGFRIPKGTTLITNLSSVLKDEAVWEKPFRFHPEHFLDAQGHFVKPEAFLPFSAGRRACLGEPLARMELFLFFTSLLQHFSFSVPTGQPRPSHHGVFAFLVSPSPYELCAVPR

[17] = biological target: Voltage-gated inwardly rectifying potassium channel KCNH2 (Homo sapiens, UniProt Q12809); assay: Inhibition of human ERG expressed in CHO cells by Qpatch assay; assay type: toxicity, cell-based
Chain of Voltage-gated inwardly rectifying potassium channel KCNH2 (Q12809 whole entry): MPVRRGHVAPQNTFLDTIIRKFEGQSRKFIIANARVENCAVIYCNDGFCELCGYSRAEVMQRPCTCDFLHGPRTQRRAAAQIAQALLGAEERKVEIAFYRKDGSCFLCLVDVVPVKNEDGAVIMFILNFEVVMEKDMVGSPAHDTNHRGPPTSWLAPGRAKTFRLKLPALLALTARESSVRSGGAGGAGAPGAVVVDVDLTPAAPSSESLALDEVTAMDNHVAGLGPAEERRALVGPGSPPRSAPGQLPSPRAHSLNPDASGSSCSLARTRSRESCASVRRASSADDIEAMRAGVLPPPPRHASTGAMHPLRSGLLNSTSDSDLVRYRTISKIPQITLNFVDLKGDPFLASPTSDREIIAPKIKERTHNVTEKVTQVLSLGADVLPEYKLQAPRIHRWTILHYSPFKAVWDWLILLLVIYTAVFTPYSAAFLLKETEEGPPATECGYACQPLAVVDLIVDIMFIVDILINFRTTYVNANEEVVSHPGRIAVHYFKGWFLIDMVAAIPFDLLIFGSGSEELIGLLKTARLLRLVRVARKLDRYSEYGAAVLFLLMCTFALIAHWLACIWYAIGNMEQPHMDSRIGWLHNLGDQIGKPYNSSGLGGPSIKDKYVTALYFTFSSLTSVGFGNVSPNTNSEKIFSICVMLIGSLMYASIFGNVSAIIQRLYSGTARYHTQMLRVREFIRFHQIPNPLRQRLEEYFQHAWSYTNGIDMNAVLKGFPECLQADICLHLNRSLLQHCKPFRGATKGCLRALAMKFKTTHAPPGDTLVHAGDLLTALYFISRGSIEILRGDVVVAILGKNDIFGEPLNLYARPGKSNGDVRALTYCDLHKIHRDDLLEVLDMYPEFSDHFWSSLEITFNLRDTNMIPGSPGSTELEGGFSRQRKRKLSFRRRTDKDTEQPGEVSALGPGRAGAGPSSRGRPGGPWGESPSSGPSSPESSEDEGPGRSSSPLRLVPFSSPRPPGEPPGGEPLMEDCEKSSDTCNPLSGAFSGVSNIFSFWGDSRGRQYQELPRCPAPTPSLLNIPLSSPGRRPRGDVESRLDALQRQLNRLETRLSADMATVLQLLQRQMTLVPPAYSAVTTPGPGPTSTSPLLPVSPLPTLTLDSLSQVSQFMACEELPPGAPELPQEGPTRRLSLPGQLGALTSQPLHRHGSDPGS

[18] = Half life in mouse at 5 mg/kg, iv; assay type: ADME, organism-based; conditions: in vivo
[19] = Tmax in mouse at 5 mg/kg, iv; assay type: ADME, organism-based; conditions: in vivo
[20] = Volume of distribution in mouse at 5 mg/kg, iv; assay type: ADME, organism-based; conditions: in vivo
[21] = Half life in mouse at 10 mg/kg, po; assay type: ADME, organism-based; conditions: in vivo

## Cc1cc(=O)n(-c2cc(Cl)ccc2F)nc1C(=O)Nc1ccc(Oc2ccnc(NC(=O)N3CC(O)C3)c2)c(F)c1
BaF3 [1]
  IC50: > 10 µM
Jurkat
  IC50: > 30 µM
NCI-H441
  IC50: > 30 µM
[2]
  inhibition: inactive
[3]
  inhibition: inactive
[4]
  Activity: 88%
[5]
  IC50: 0.475 µM
BaF3 [6]
  IC50: 3.69 µM
[7]
  inhibition: Dose-dependent-effect
MOLM-13 [8]
  inhibition: Dose-dependent-effect
[9]
  inhibition: 100%
MOLM-13 [10]
  viability at 1 µM: 33.5%
MOLM-13 [11]
  Activity: 3.37%
MOLM-13 [12]
  Activity: 0.068%
MOLM-13 [13]
  Activity: Dose-dependent-effect
[14]
  remaining at 1 h, 1 µM: 99.6%
[15]
  half-life at 1 µM: 2.1 h
[16]
  Papp at 4 h: 0.86 ×10⁻⁶ cm/s
CYP1A2
  inhibition at 10 min, 10 µM: 9.5%
CYP2D6
  inhibition at 10 min, 10 µM: 19.8%
[17]
  IC50: > 30 µM
[18]
  half-life: 6.57 h
[19]
  Tmax: 0.25 h
[20]
  Vd: 20.9 L/kg
[21]
  half-life: 1.83 h
